The text below walks through data of paper PMC7529893, “Structural basis for substrate recognition and chemical inhibition of oncogenic MAGE ubiquitin ligases” (Nature Communications, 2020).

One test addresses T1, MAGE-A11:PCF11 interaction (GST-MAGE-A11 MHD and FAM-PCF11_4) (Homo sapiens, UniProt P43364).
T1 construct: GST-MAGE-A11 MHD (human MAGE-A11 MHD amino acid 218-429); made in house; host or cells: E. coli BL21(DE3)
T1 sequence (P43364 218-429): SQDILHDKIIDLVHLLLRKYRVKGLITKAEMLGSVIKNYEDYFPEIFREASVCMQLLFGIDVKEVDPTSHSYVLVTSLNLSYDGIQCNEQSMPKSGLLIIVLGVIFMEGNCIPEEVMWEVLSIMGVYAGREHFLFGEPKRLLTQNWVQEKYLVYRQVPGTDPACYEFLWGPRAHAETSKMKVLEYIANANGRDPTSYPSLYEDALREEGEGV
In words: TR-FRET dose response test of compounds for disruption of MAGE-A11:PCF11 binding. The settings on record: Dose response TR-FRET screening of nine scaffold groups against MAGE-A11:PCF11; read-out: consensus IC50. As for the experimental part:
The TR-FRET assay buffer with a formula of 50 mM Tris pH 7.5, 20 mM MgCl2, 0.1 mg/ml BSA and 1 mM DTT was freshly prepared before each experiment. All TR-FRET assays were performed in black 384-well plates with 20 µl/well assay volume in the TR-FRET assay buffer at room temperature (~25 °C). All peptides or compounds were solubilized in DMSO. To test the competitive activity of peptides or compounds against the interaction between GST-MAGE-A11 MHD and FAM-PCF11_4 peptide, 10 µl/well peptide or compound at specified concentration was dispensed into a black 384-well low volume plate, followed by 5 µl/well FAM-PCF11_4 (800 nM), 5 µl/well Tb-anti-GST (20 nM), and GST-MAGE-A11 MHD (20 nM). The assay components in each well was then mixed by shaking the plate on an IKA MTS 2/4 digital microtiter plate shaker (IKA Works; Wilmington, NC, USA) for 1 min. The plate was further centrifuged in an Eppendorf 5810 centrifuge with an A-4-62 swing-bucket rotor (Eppendorf AG, Hamburg, Germany) at 201 g for 30 s. The plate was then incubated for 90 min with a lid to avoid light exposure to the assay components. After incubation, the fluorescent emission signals at 520 nm and 490 nm channels of individual wells were measured with a PHERAstar FS plate reader (BMG Labtech; Durham, NC, USA) by using a 340 nm excitation filter, 100 µs delay time, and 200 µs integration time. The TR-FRET fluorescence emission ratio (TR-FRET signal) for each well was presented as 10,000 × 520 nm/490 nm, which was used directly for curve fitting, or further converted to %Inhibition based on the respective positive and negative controls. The graphic software GraphPad Prism 4.81 (GraphPad Software; La Jolla, CA, USA) was used to generate curves and derive IC50 values of tested peptides or compounds, if applicable.
TR-FRET screen for identifying MAGE-A11 small molecule inhibitors was performed as follows. The primary one-concentration screening and subsequent 10 or 20-concentration dose-response tests were accomplished with an automated High Throughput Screening system (HighRes Biosolutions, Beverly, MA)[30]. In the primary screening, 15 µl/well FAM-PCF11_4 (267 nM) was first dispensed with a Multidrop Combi Reagent Dispenser (Thermo Fisher Scientific, Waltham, MA) to black 384-well low-volume assay plates. The plates were spun down with a Velocity11 VSpin microplate centrifuge (Agilent Technologies, Santa Clara, CA). In total, 30 nl/well of 10 mM compound/DMSO solutions, or DMSO alone, were transferred from compound plates (the St. Jude FDA drug and bioactive library, Drug-like library and Lead-like library) or a control plate to the assay plates with a Pin Tool (V&P Scientific, San Diego, CA). The compounds were arrayed in columns 3–12 and columns 15–24 of compound plates. The controls were arrayed in columns 1, 2, 13, and 14 of a compound plate. In all, 5 µl/well Tb-anti-GST (20 nM) and GST-MAGE-A11 (20 nM) or 5 µl/well Tb-anti-GST (20 nM) alone was then dispensed to selected wells with a Multidrop Combi Reagent Dispenser. The final assay volume was 20 µl/well. The final DMSO concentration was 0.25% (v/v) (0.1% (v/v) from the FAM-PCF11_4 DMSO stock solution and 0.15% (v/v) from the compound-DMSO solution or the DMSO for the control wells). The final tested compound concentration was 15 µM. The final FAM-PCF11_4 concentration was 200 nM and the final Tb-anti-GST concentration was 5 nM. The final GST-MAGE-A11 concentration was 5 nM except for those selected positive control wells in which GST-MAGE-A11 was not presented. The plates were then shaken with a big bear shaker (Big Bear Automation, Santa Clara, California) and spun down with the Velocity11 VSpin microplate centrifuge for 20 s. The plates were then incubated at room temperature in a Liconic incubator (Liconic US, Woburn, MA) for 90 min. The TR-FRET signals for individual wells were measured with a PHERAstar FS plate reader. The %Inhibition of each tested inhibitor was calculated by using Eq. 1.
(TR-FRET usually uses a lanthanide donor and a delayed reading to cut background.)
A word on the IC50: it is the concentration that gives 50% inhibition. In the case of `Cc1ccc(S(=O)(=O)N2CCN(C3=C(Cl)C(=O)c4ccccc4C3=O)CC2)cc1` [SJ000021282-1], the IC50 turned out to be 10.4 µM.
`O=C1C(Cl)=C(NC(=O)C(F)(F)F)C(=O)c2ccccc21` [SJ000024928-1]: the IC50 is 9.87 µM.
Still for that read-out and setting: the same measure for `Cc1ccc(S(=O)(=O)c2nc(-c3cccc(C)c3)oc2N2CCOCC2)cc1` [SJ000027480-1]: 11.2 µM.
In the case of `O=S(=O)(c1ccc(Cl)cc1)c1nc(-c2cccc(Br)c2)oc1N1CCOCC1` [SJ000027481-1], the 50% inhibitory concentration (IC50) is 9.2 µM.
As to `Cc1ccc(S(=O)(=O)c2nc(-c3cccc([N+](=O)[O-])c3)oc2N2CCOCC2)cc1` [SJ000027482-1], the 50% inhibitory concentration (IC50) was 9.54 µM.

Another test deals with T2, MAGE-A11:PCF11 interaction (GST-MAGE-A11 and FAM-PCF11_4) (Homo sapiens, UniProt P43364).
T2 construct: GST-MAGE-A11 MHD (human MAGE-A11 MHD amino acid 218-429); made in house; host or cells: E. coli BL21(DE3)
T2 sequence (P43364 218-429): T1 sequence (P43364 218-429)
As to the kind of experiment: TR-FRET primary / single point screen at 15 µM. In kind it is binding. The settings on record: single point TR-FRET screening of 797 quinoline compounds against MAGE-A11:PCF11. The method in brief:
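Single-point screen at 15 µM final compound in 50 mM Tris pH 7.5, 20 mM MgCl2, 0.1 mg/ml BSA, 1 mM DTT, with 200 nM FAM-PCF11_4, 5 nM Tb-anti-GST and 5 nM GST-MAGE-A11. After 90 min at room temperature, the 520/490 nm TR-FRET ratio (340 nm excitation) gave %Inhibition against no-MAGE-A11 and DMSO controls.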
As for `Fc1cccc(CN2CCC(Nc3ccnc4cc(Cl)ccc34)CC2)c1` [SJ000523092], the “percent inhibition (TR-FRET)” value is 6.622.
Turning to `Fc1ccc(CN2CCC(Nc3ccnc4cc(Cl)ccc34)CC2)cc1` [SJ000523093], the “percent inhibition (TR-FRET)” value is listed as 10.6575.
On to `O=[N+]([O-])c1ccccc1CN1CCC(Nc2ccnc3cc(Cl)ccc23)CC1` [SJ000523094], for which the “percent inhibition (TR-FRET)” value is given as -2.0257.
Regarding `O=[N+]([O-])c1cccc(CN2CCC(Nc3ccnc4cc(Cl)ccc34)CC2)c1` [SJ000523095], the “percent inhibition (TR-FRET)” value came to 0.8927.
As to `O=[N+]([O-])c1ccc(CN2CCC(Nc3ccnc4cc(Cl)ccc34)CC2)cc1` [SJ000523096], the “percent inhibition (TR-FRET)” value is -4.954.
`COc1ccccc1CN1CCC(Nc2ccnc3cc(Cl)ccc23)CC1` [SJ000523097]: the “percent inhibition (TR-FRET)” value is reported as 8.596.
`O=C(O)c1ccccc1CN1CCC(Nc2ccnc3cc(Cl)ccc23)CC1` [SJ000523098]: the “percent inhibition (TR-FRET)” value was -2.194.
Regarding `Clc1ccc2c(NC3CCN(Cc4cccc5ccccc45)CC3)ccnc2c1` [SJ000523099], the “percent inhibition (TR-FRET)” value is reported as -6.179.
In the case of `Clc1ccc2c(NC3CCN(Cc4ccc5ccccc5c4)CC3)ccnc2c1` [SJ000523100], the “percent inhibition (TR-FRET)” value turned out to be 4.171.
As to `Cc1cccc(CN2CCC(Nc3ccnc4cc(Cl)ccc34)CC2)c1` [SJ000523101], the “percent inhibition (TR-FRET)” value came out at 18.5377.
For the compound `CN(C)c1ccc(CN2CCC(Nc3ccnc4cc(Cl)ccc34)CC2)cc1` [SJ000523102], the “percent inhibition (TR-FRET)” value stood at 13.0905.
Consider `COc1ccc(CN2CCC(Nc3ccnc4cc(Cl)ccc34)CC2)cc1OC` [SJ000523103], for which the “percent inhibition (TR-FRET)” value was found to be 11.7451.
Same read-out and setting: under `Clc1ccc2c(NC3CCN(CCCc4ccccc4)CC3)ccnc2c1` [SJ000523104] stands 20.6486; under `CCC(C)CN1CCC(Nc2ccnc3cc(Cl)ccc23)CC1` (stereo not shown) [SJ000523105], 11.185.
On to `Cc1ccc(C)c(CN2CCC(Nc3ccnc4cc(Cl)ccc34)CC2)c1` [SJ000523106], for which the “percent inhibition (TR-FRET)” value is listed as 18.6767.
As to `COc1cccc(CN2CCC(Nc3ccnc4cc(Cl)ccc34)CC2)c1` [SJ000523107], the “percent inhibition (TR-FRET)” value is on record as 3.1492.
`CCCCCCN1CCC(Nc2ccnc3cc(Cl)ccc23)CC1` [SJ000523108]: the “percent inhibition (TR-FRET)” value was determined as 29.2961.
For `O=C(C[C@H]1CC[C@]2(CC1)OO[C@]1(O2)C2CC3CC(C2)CC1C3)NCCNc1ccnc2cc(Cl)ccc12` [SJ000578361], the “percent inhibition (TR-FRET)” value was determined as 28.0142.
Consider `Clc1ccc2c(NCCNCC[C@H]3CC[C@]4(CC3)OO[C@]3(O4)C4CC5CC(C4)CC3C5)ccnc2c1` [SJ000578381], for which the “percent inhibition (TR-FRET)” value is reported as 18.3966.
Consider `O=C(C[C@H]1CC[C@]2(CC1)OO[C@]1(O2)C2CC3CC(C2)CC1C3)NCCCCNc1ccnc2cc(Cl)ccc12` [SJ000578384], for which the “percent inhibition (TR-FRET)” value is reported as 25.1182.
With `Cc1cc(NC(=O)CN[C@H]2CCN(Cc3ccccc3)C2)c2ccccc2n1` [SJ000832405], the “percent inhibition (TR-FRET)” value came out at 4.364.
As for `Cc1cc(NC(=O)CN[C@H]2CCN(Cc3cccc(F)c3)C2)c2ccccc2n1` [SJ000832581], the “percent inhibition (TR-FRET)” value is on record as -1.278.

The test is the same for the next values; noted with them: single point TR-FRET screening of quinoline compounds against MAGE-A11:PCF11; 15 µM.
For the compound `CCCN(CCCNc1c2ccc(Cl)cc2nc2ccc(OC)cc12)CC1CCOC1` (stereo not shown) [SJ000575149], the “percent inhibition (TR-FRET)” value is on record as -35.9356.
`CCCN(CCCNc1c2ccc(Cl)cc2nc2ccc(OC)cc12)CC(C)C` [SJ000575150]: the “percent inhibition (TR-FRET)” value is reported as -21.3723.
The same measure, in the same setting: the same measure for `CCCN(CCCCCC(=O)OC)CCCNc1c2ccc(Cl)cc2nc2ccc(OC)cc12` [SJ000575151]: -37.4059; for `CCCN(CCCNc1c2ccc(Cl)cc2nc2ccc(OC)cc12)Cc1cccnc1` [SJ000575152]: -23.4028; for `CCCN(CCCNc1ccnc2cc(C(F)(F)F)ccc12)Cc1nccn1C` [SJ000575170]: 7.1241.
`CCCN(CCCNc1ccnc2cc(C(F)(F)F)ccc12)Cc1ccc2[nH]ccc2c1` [SJ000575171]: the “percent inhibition (TR-FRET)” value came out at 32.8899.
With `CCCN(CCCNc1ccnc2cc(C(F)(F)F)ccc12)Cc1scnc1C` [SJ000575179], the “percent inhibition (TR-FRET)” value was found to be 5.164.
The same measure, in the same setting: the same measure for `CCCN(CCCNc1ccnc2cc(C(F)(F)F)ccc12)Cc1cccnc1Br` [SJ000575180]: 5.164; for `CCCN(CCCNc1ccnc2cc(C(F)(F)F)ccc12)Cc1ncc[nH]1` [SJ000575181]: 9.345; for `CCCN(CCCNc1ccnc2cc(C(F)(F)F)ccc12)Cc1cnn(C)c1` [SJ000575182]: 15.6779.
For the compound `CCCN(CCCNc1ccnc2cc(C(F)(F)F)ccc12)Cc1nccs1` [SJ000575189], the “percent inhibition (TR-FRET)” value was determined as 8.665.
As for `CCCN(CCCNc1ccnc2cc(C(F)(F)F)ccc12)CC1CCOC1` (stereo not shown) [SJ000575190], the “percent inhibition (TR-FRET)” value is 1.787.
Take `CCCN(CCCCCC(=O)OC)CCCNc1ccnc2cc(C(F)(F)F)ccc12` [SJ000575191]: the “percent inhibition (TR-FRET)” value came out at 5.6.
For the compound `Clc1ccc2c(NCCCNCc3ccc[nH]3)ccnc2c1` [SJ000575192], the “percent inhibition (TR-FRET)” value came out at 52.9917.
Take `Clc1ccc2c(NCCCNCc3ccc(Br)s3)ccnc2c1` [SJ000575193]: the “percent inhibition (TR-FRET)” value came to 15.3375.
Consider `O=C(C[C@H]1CC[C@]2(CC1)OO[C@]1(O2)C2CC3CC(C2)CC1C3)NCCCNc1ccnc2cc(Cl)ccc12` [SJ000578380], for which the “percent inhibition (TR-FRET)” value amounted to 28.4789.
